Assay [1] is described as follows: THP-1 cell cytotoxicity, dose response, cytotoxicity control for non-replicating M. tuberculosis project (AID 489025). The class given is functional.
Assay [2] deals with Glucose-6-phosphate 1-dehydrogenase (Homo sapiens, UniProt P11413). Description: human G6PD enzyme inhibitors, dose response, selectivity assay for P. falciparum G6PD inhibitor project, biochemical, fluorescence (AID 504792). Format: functional.
For assay [3], the target named is T1, Heat shock factor protein 1 (Mus musculus, UniProt P38532).
T1 sequence (P38532 whole entry): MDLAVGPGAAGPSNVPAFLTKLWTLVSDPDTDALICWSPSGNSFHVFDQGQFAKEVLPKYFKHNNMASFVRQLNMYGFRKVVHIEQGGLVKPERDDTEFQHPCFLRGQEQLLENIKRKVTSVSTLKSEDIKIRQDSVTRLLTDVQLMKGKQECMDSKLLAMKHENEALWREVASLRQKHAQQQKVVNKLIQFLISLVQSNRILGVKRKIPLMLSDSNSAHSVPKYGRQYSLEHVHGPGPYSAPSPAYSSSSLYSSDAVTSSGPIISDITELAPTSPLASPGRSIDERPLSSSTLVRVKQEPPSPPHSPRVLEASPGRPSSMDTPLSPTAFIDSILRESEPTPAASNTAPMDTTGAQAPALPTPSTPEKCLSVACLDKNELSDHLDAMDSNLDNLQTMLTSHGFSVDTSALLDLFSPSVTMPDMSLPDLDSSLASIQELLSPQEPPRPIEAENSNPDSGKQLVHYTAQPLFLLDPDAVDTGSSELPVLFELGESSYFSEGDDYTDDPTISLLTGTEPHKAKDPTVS
Description: HSF1 potentiators in luciferase reporter cells, confirmation, cell-based, NIH3T3, luminescence, dose retest (AID 435004).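 Note: stress induced by proteasome inhibitor MG132 added 30 min after compound; luciferase reporter driven by HSF1 response element in NIH3T3 cells; actives raise luminescence as potentiators of the MG132 stress response.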 Format: functional.

The next assay in a line: cells. The class given is functional.
Assay [4] can be described thus: cytotoxicity toward NIH3T3 fibroblasts, dose response, counter-screen, cell-based, ATP luminescence, mouse fibroblasts (AID 2010).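 Note: cells exposed to compound for about 90 hours before reading.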 Format: functional.
For assay [5], the target named is Lysine-specific demethylase 4C (Homo sapiens, UniProt Q9H3R0). Description: GASC-1 (JMJD2C) histone demethylase inhibitors, dose response, biochemical, DELFIA europium, cherry-picked samples (AID 488835). Format: functional.
Sequence of Lysine-specific demethylase 4C (Q9H3R0 whole entry): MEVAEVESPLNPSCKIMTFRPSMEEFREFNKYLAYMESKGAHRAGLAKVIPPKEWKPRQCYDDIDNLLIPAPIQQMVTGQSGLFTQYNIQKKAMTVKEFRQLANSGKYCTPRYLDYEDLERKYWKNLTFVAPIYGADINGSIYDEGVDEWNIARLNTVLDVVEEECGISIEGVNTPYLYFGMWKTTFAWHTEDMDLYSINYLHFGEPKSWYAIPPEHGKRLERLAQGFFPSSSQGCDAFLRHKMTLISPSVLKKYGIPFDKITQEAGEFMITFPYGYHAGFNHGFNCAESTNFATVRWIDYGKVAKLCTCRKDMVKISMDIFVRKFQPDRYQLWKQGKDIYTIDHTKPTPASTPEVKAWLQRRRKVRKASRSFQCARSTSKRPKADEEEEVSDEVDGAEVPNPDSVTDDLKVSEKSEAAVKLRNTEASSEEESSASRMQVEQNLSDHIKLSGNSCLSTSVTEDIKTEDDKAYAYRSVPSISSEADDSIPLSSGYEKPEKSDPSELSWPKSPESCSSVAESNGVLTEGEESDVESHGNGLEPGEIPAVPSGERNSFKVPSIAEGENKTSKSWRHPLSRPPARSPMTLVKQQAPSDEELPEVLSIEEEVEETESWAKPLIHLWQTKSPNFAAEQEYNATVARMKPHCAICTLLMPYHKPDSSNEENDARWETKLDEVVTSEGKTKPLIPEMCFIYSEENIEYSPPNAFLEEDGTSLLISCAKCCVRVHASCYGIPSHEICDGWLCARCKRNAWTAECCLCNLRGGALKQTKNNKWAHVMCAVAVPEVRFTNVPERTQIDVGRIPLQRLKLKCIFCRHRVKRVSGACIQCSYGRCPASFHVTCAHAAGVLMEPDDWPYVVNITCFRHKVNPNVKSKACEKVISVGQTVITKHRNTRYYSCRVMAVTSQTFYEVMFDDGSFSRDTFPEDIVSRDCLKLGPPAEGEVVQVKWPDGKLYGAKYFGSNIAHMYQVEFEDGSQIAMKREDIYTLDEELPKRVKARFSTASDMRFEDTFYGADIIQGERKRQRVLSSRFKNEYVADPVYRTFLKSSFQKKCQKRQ
Another assay addresses T2, Hexokinase-1 (Homo sapiens, UniProt P19367).
T2 sequence (P19367 whole entry): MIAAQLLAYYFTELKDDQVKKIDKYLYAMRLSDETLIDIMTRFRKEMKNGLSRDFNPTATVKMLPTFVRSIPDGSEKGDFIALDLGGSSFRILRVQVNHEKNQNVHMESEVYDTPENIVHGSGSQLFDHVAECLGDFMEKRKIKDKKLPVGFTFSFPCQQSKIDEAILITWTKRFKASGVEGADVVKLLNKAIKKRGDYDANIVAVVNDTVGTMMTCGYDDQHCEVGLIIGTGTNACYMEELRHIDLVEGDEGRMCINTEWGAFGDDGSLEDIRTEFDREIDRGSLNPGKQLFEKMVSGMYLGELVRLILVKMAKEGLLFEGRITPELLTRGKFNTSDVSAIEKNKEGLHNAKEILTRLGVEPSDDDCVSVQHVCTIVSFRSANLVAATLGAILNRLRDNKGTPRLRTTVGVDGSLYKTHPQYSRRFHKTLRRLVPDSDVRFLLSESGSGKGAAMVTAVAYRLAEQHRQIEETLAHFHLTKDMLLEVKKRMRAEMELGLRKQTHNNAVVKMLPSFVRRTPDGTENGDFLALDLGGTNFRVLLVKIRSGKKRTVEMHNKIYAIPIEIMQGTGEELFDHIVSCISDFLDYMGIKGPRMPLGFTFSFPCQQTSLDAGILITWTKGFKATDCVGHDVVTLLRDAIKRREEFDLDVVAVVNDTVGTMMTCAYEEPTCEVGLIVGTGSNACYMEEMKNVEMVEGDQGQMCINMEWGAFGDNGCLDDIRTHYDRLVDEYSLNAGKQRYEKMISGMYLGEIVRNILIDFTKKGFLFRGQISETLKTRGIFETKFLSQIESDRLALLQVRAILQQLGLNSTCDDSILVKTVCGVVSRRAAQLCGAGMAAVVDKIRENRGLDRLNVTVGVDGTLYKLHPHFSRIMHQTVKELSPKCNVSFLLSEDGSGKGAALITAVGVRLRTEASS
Description: hexokinase 1 activators, dose response, selectivity assay for HKDC1 activator project, biochemical (AID 504762). Format: functional.

In assay [6] the target is Heat shock protein HSP 90-alpha (Homo sapiens, UniProt P07900). Format: functional, organism-based.

Activity calls are given as the source filed them.

Sequence of Glucose-6-phosphate 1-dehydrogenase (P11413 whole entry): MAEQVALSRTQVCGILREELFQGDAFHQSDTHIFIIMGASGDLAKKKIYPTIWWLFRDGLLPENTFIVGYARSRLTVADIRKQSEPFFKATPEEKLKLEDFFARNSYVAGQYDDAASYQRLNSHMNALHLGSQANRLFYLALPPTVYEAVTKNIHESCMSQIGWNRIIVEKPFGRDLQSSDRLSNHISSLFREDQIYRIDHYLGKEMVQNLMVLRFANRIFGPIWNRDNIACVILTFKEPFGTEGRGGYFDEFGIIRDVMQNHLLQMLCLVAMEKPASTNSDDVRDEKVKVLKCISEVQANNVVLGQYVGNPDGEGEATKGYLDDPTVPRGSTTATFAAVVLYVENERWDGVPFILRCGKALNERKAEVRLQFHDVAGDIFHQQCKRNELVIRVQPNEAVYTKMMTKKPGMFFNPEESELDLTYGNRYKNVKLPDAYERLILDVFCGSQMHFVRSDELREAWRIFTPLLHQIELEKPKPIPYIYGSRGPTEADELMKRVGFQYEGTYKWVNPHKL

A word on the CC50: it is the concentration giving 50% cytotoxicity. In general, IC50 refers to the concentration at which inhibition is half-maximal. As a reminder, the EC50 is the concentration at which the effect is half-maximal. The AC50 is the concentration giving half of the maximal activity seen. On to `Clc1ccc(/N=c2\ssnc2Cl)nc1`, for which the cytotoxic concentration (CC50) in assay [1] was 17.5 µM (active). The figures for the IC50 (in assay [2]; in “cells”) were > 80 µM (inactive) and 32.9 µM (active), respectively. In addition, the 50% effective concentration (EC50) in assay [3] was 16 µM (active); in assay [4], > 60 µM (not active); on Hexokinase-1 it was 65.4 µM (inactive). Moreover, the AC50 in assay [5] is 669 nM (active); in assay [6], 1.73 µM (active).
